Results on 8 molecules are retold here after patent US20260028348A1, “MODULATORS OF TNF-ALPHA ACTIVITY” (Forward Therapeutics, Inc., priority 2023, published 2026).

Bounds are passed on as bounds.

The assay has as its system HEK Blue™ TNFα reporter cells. As to the kind of experiment: TNF-α Induced HEK Blue Cellular Assay. Type of assay: cell-based. Conditions: TNF-α stimulated HEK Blue TNFα reporter cells, 24 hrs, secreted alkaline phosphatase (QUANTI-Blue, 620 nm). The procedure: Test articles were diluted in DMSO and serially diluted into 384 well assay plate (Corning 3765), at final concentrations ranging from […] to 0.5 nM. HEK Blue™ TNFα reporter cells were added at a final density of 10,000 cell per well in assay media [DMEM (Gibco, cat #21063-029), 10% fetal bovine serum (ExcelBio, cat #FND500), 1% Penicillin-Streptomycin (Solarbio, cat #P1400-100]. TNF-α (R&D 210-TA-020/CF) was then added to the assay plate at a final concentration of […]. This plate was then incubated for 24 hrs at 37° C. and 5% CO2. Secreted alkaline phosphatase expression was then measured using QUANTI-Blue™(Invivogen), according to manufacturer instructions and read on an Envision microplate reader at 620 nm.
Inhibition data for test compound over a range of concentration was plotted as percentage inhibition of the test compound (100%=maximum inhibition). IC50 values were determined after correcting for background [(sample read-mean of low control)/(mean of high control-mean of low control)] whereby the low control is DMSO without stimulation and high control is DMSO with stimulation. The IC50 is defined as the concentration of test compound which produces […] and was quantified using the 4 parameter logistic equation to fit the data.
On to `N[C@H]1CCc2cc(-c3ccc4nc5n(c4c3)[C@@H]3C[C@H]5NC(=O)c4cccc(OC(F)F)c43)ccc21` [Example 6, (1R,11R)-5-[(1S)-1-amino-2,3-dihydro-1H-inden-5-yl]-18-(difluoromethoxy)-2,9,12-triazapentacyclo[9.8.1.0^{2,10}.0^{3,8}.0^{14,19}]icosa-3(8),4,6,9,14(19),15,17-heptaen-13-one], for which the IC50 is less than 0.1 µM.

In the case of `CN1C(=O)c2cccc(OC(F)F)c2[C@H]2C[C@@H]1c1nc3cc(F)c(-c4cnc5c(c4)CCC5(C)N)cc3n12` (stereo partly drawn) [Example 27, (1R,11R)-5-{7-amino-7-methyl-5H,6H-cyclopenta[b]pyridin-3-yl}-18-(difluoromethoxy)-6-fluoro-12-methyl-2,9,12-triazapentacyclo[9.8.1.0^{2,10}.0^{3,8}.0^{14,19}]icosa-3(8),4,6,9,14(19),15,17-heptaen-13-one; formic acid], the IC50 is less than 0.1 µM.

On to `CN1C(=O)c2cccc(OC(F)F)c2[C@H]2C[C@@H]1c1nc3ccc(-c4ccc5c(c4)NC(=O)C5(C)N)cc3n12` (stereo partly drawn) [Example 31, (7R,14R)-11-(3-amino-3-methyl-2-oxoindolin-6-yl)-1-(difluoromethoxy)-6-methyl-6,7-dihydro-7,14-methanobenzo[f]benzo[4,5]imidazo[1,2-a][1,4]diazocin-5(14H)-one], for which the IC50 is less than 0.1 µM.

Take `[2H]C([2H])([2H])N1C(=O)c2cccc(OC(F)F)c2[C@H]2C[C@@H]1c1nc3ccc(-c4cnc5c(c4)OCC5(C)O)cc3n12` (stereo partly drawn) [Example 44, (7R,14R)-1-(difluoromethoxy)-11-(3-hydroxy-3-methyl-2,3-dihydrofuro[3,2-b]pyridin-6-yl)-6-(methyl-d3)-6,7-dihydro-7,14-methanobenzo[f]benzo[4,5]imidazo[1,2-a][1,4]diazocin-5(14H)-one]: the IC50 is less than 0.1 µM.

As to `CN1C(=O)c2cccc(OC(F)F)c2[C@H]2C[C@@H]1c1nc3ccc(-c4cnc5c(c4)CC[C@@]5(C)N)cc3n12` (single isomer, unassigned) [Example 22], the concentration for half-maximal inhibition (IC50) is less than 0.1 µM.

In turn, `CN1C(=O)c2cccc(OC(F)F)c2[C@H]2C[C@@H]1c1nc3ccc(-c4cnc5c(c4)CNC5=O)cc3n12` [Example 18, (1R,11R)-18-(difluoromethoxy)-12-methyl-5-{7-oxo-5H,6H-pyrrolo[3,4-b]pyridin-3-yl}-2,9,12-triazapentacyclo[9.8.1.0^{2,10}.0^{3,8}.0^{14,19}]icosa-3(8),4,6,9,14(19),15,17-heptaen-13-one] yielded a half-inhibitory concentration (IC50) of 0.1 to 1 µM.

The molecule `N[C@H]1CCc2cc(-c3ccc4nc5n(c4c3)[C@@H]3C[C@H]5NC(=O)c4cccc(OC(F)F)c43)cc(F)c21` [Example 13, (1R,11R)-5-[(1S)-1-amino-7-fluoro-2,3-dihydro-1H-inden-5-yl]-18-(difluoromethoxy)-2,9,12-triazapentacyclo[9.8.1.0^{2,10}.0^{3,8}.0^{14,19}]icosa-3(8),4,6,9,14(19),15,17-heptaen-13-one] yielded a half-maximal inhibitory concentration (IC50) of less than 0.1 µM.

Regarding `CN1C(=O)c2cccc(OC(F)F)c2[C@H]2C[C@@H]1c1nc3ccc(-c4cnc5c(c4)CC[C@@H]5N)cc3n12` (single isomer, unassigned) [Example 16], the IC50 was less than 0.1 µM.

By IC50 is commonly meant the concentration that inhibits the measured activity by half.
